{"source": "patent US11173160B2", "about": "(UNIVERSITY OF PITTSBURGH—OF THE COMMONWEALTH SYSTEM OF …, priority 2019, dated 2021)", "key": {"[1]": {"tested_on": "six adult patient-derived glioblastoma cell lines (e.g., BT228, BT286, BT145)", "assay": "radiation therapy and TG02 in adult glioblastoma cell lines", "assay_type": "cell-based, human", "settings": "TG02 between 100 and 250 nM", "description": "Cell viability was assessed on Day 5."}, "[2]": {"target": "FLT3 (Homo sapiens, UniProt P36888)", "settings": "Source Invitrogen; 10-point titration in duplicates, done once; cited from earlier work"}, "[3]": {"tested_on": "DIPG-13p and SF8628 cells", "assay": "cell growth and Annexin-PI apoptosis assay", "assay_type": "cell-based, human", "description": "FIG. 12E provides Annexin-PI quantification of DIPG cells treated in biological triplicates with ERK5 inhibitors at 48 h from (FIGS. 12C-12D).\nApoptosis was quantified using the Pacific Blue Annexin V Apoptosis Detection Kit with propidium iodide (BioLegend, San Diego, Calif. Cat #640926). Analysis was performed at the Flow Cytometry Core, Rangos Research Center, UPMC Children's Hospital of Pittsburgh."}, "[4]": {"target": "JAK1 (Homo sapiens, UniProt P23458)", "settings": "Source Invitrogen; 10-point titration in duplicates, done once; cited from earlier work"}, "[5]": {"target": "Pim-3 (Homo sapiens, UniProt Q86V86)", "settings": "cited from earlier work"}, "[6]": {"target": "PLK3 (Homo sapiens, UniProt Q9H4B4)", "sequence (Q9H4B4 whole entry, species assumed)": "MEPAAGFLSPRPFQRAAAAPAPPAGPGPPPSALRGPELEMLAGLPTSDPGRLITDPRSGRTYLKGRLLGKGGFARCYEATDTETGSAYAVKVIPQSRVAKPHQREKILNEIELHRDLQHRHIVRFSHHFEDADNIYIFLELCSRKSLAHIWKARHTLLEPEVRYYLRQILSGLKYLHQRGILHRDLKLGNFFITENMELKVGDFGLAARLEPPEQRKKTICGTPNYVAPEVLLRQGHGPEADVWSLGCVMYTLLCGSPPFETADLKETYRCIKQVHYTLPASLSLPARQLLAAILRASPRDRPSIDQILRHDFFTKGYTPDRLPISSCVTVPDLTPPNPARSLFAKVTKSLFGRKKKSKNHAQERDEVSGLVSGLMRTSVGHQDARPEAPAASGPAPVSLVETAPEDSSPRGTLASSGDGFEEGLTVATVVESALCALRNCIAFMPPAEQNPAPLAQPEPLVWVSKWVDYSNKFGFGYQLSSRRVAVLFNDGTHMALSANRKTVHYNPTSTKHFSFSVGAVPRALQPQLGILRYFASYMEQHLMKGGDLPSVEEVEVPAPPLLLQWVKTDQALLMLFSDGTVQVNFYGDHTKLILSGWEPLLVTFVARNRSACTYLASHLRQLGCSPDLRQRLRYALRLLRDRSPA", "settings": "cited from earlier work"}, "[7]": {"target": "Aurora A (Homo sapiens, UniProt O14965)", "sequence (O14965 whole entry)": "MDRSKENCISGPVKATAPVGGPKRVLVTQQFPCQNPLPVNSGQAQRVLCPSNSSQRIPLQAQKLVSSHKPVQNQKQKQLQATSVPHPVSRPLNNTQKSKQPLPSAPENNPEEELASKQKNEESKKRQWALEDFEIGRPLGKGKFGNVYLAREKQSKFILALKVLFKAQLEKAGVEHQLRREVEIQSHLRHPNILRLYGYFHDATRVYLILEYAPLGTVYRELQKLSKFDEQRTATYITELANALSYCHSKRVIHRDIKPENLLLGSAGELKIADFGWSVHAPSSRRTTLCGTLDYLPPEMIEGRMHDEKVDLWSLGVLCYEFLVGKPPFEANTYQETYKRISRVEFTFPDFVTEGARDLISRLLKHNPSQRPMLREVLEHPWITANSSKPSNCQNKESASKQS", "settings": "cited from earlier work"}, "[8]": {"target": "TTK (Homo sapiens, UniProt P33981)", "settings": "cited from earlier work"}, "[9]": {"target": "PLK1 (Homo sapiens, UniProt P53350)", "sequence (P53350 whole entry, species assumed)": "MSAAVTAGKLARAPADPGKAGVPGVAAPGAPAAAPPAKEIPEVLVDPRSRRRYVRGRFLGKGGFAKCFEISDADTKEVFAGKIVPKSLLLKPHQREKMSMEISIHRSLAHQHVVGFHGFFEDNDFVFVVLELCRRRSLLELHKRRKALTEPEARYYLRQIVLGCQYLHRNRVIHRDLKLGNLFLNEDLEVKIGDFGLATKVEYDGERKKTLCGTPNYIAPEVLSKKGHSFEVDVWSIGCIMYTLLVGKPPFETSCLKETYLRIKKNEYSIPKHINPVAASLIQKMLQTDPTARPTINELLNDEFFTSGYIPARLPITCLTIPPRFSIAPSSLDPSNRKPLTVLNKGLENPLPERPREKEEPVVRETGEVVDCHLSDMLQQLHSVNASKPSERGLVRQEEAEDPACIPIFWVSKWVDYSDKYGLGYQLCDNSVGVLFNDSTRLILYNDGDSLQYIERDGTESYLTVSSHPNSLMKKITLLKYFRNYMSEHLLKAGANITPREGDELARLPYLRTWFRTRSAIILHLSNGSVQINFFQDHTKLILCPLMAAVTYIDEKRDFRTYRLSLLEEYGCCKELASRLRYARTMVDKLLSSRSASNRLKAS", "settings": "cited from earlier work"}, "[10]": {"target": "Nek2 (Homo sapiens, UniProt P51955)", "settings": "cited from earlier work"}, "[11]": {"target": "PAK2 (Homo sapiens, UniProt Q13177)", "sequence (Q13177 whole entry)": "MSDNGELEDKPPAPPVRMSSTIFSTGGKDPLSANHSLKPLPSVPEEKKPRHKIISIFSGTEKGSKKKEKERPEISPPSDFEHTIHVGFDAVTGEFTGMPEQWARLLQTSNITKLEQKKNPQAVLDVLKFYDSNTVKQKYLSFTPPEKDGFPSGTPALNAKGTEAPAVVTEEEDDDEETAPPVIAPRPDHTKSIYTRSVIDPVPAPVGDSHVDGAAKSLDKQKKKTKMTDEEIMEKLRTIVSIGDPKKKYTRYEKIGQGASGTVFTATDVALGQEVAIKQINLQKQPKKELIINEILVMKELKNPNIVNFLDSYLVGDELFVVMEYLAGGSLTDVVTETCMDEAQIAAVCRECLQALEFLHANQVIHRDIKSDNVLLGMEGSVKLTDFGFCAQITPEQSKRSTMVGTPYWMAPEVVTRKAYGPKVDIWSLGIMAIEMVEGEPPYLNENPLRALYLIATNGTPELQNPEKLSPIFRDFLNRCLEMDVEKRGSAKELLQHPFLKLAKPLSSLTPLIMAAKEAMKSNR", "settings": "cited from earlier work"}, "[12]": {"target": "TAK1 (Homo sapiens, UniProt O43318)", "settings": "cited from earlier work"}, "[13]": {"target": "Fyn (Homo sapiens, UniProt P06241)", "settings": "Source Millipore; 10-point titration in duplicates, done once; cited from earlier work"}, "[14]": {"tested_on": "DIPG-13p and DIPG-IV cells", "assay": "cell viability with TG02 and/or RT", "assay_type": "cell-based, human"}, "[15]": {"target": "CDK6 (Homo sapiens, UniProt Q00534)", "settings": "cited from earlier work"}, "[16]": {"target": "c-Raf (Homo sapiens, UniProt P04049)", "settings": "cited from earlier work"}, "[17]": {"settings": "cited from earlier work"}, "[18]": {"target": "GSK3α (Homo sapiens, UniProt P49840)", "settings": "cited from earlier work"}, "[19]": {"target": "MAPKAP-K2 (Homo sapiens, UniProt P49137)", "settings": "cited from earlier work"}, "[20]": {"target": "TYRO3 (Homo sapiens, UniProt Q06418)", "settings": "Source Invitrogen; 10-point titration in duplicates, done once; cited from earlier work"}, "[21]": {"target": "IGF-1R (Homo sapiens, UniProt P08069)", "sequence (P08069 31-1367)": "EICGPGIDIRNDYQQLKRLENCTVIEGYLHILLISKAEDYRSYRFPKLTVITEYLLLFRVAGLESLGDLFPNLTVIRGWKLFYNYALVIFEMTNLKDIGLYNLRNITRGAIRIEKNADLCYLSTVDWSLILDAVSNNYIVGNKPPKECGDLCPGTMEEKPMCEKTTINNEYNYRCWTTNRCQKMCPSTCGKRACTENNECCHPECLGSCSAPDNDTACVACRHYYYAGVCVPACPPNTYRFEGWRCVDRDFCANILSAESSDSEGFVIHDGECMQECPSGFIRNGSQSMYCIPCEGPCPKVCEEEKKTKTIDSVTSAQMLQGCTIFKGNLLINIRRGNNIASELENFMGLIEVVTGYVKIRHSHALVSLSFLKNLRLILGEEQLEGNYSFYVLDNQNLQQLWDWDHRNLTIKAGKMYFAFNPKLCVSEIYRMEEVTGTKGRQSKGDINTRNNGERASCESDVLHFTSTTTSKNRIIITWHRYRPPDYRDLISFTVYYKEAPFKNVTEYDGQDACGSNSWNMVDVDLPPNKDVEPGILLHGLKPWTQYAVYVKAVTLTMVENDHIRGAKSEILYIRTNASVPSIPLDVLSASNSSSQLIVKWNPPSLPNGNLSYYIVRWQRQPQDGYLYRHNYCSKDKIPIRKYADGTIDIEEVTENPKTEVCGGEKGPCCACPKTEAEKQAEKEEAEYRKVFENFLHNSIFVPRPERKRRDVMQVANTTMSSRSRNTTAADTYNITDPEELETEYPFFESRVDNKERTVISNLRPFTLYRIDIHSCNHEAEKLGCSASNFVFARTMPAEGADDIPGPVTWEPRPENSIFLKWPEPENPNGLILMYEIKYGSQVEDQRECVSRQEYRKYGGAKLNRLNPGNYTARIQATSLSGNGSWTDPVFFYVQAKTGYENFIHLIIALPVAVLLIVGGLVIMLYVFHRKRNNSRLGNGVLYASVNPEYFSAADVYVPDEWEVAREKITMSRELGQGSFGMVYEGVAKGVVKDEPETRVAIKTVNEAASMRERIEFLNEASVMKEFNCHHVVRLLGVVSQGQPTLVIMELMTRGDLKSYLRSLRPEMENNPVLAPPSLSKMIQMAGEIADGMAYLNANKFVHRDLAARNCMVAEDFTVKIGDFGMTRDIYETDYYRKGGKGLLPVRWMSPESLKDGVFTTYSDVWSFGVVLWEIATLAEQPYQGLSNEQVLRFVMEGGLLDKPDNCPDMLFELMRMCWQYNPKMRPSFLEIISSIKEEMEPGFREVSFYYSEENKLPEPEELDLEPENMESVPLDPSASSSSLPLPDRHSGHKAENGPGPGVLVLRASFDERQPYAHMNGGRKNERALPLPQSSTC", "settings": "cited from earlier work"}, "[22]": {"target": "JAK2 (Homo sapiens, UniProt O60674)", "sequence (O60674 whole entry)": "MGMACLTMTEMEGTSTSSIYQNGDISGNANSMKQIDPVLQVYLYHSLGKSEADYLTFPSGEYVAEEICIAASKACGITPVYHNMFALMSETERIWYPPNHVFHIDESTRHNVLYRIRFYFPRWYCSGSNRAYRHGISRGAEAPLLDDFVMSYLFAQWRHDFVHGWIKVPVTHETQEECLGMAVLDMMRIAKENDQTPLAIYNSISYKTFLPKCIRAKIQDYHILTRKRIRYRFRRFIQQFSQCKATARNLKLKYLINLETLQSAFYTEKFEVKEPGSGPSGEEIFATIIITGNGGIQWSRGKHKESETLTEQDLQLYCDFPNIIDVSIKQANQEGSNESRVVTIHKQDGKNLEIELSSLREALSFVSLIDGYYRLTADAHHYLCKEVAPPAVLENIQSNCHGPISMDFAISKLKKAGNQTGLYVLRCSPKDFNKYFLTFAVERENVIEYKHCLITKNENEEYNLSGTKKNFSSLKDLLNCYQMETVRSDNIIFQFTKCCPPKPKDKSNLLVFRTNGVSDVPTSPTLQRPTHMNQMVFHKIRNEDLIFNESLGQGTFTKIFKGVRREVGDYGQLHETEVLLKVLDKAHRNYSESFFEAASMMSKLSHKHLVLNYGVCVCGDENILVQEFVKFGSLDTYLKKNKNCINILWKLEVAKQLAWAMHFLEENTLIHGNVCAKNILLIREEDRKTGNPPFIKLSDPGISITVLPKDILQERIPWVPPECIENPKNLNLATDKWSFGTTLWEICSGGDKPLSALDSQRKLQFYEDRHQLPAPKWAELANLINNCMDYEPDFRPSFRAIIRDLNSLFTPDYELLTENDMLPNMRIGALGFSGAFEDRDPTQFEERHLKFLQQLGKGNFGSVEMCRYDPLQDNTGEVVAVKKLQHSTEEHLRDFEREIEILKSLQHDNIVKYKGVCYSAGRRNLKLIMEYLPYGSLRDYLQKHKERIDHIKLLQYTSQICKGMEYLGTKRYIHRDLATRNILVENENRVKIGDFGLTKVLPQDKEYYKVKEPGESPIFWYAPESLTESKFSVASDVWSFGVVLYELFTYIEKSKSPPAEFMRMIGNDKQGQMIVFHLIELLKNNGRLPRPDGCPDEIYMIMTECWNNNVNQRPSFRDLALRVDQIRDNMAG", "settings": "Source Invitrogen; 10-point titration in duplicates, done once; cited from earlier work"}, "[23]": {"target": "Aurora B (Homo sapiens, UniProt Q96GD4)", "sequence (Q96GD4 whole entry)": "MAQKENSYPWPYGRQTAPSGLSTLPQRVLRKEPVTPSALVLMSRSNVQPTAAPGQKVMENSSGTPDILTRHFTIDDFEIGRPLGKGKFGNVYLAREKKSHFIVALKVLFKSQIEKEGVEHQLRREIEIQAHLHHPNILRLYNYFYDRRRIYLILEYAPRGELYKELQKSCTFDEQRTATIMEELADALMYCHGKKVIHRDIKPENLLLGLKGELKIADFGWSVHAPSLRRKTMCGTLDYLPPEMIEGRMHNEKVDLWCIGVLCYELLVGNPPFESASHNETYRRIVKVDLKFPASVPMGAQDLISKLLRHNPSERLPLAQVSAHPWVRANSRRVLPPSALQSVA", "settings": "cited from earlier work"}, "[24]": {"tested_on": "ERK5 auto-phosphorylation and cleaved PARP in tumor", "assay": "western blot of tumor lysates from treated mice", "assay_type": "in vivo", "settings": "mice sacrificed after 5 days of treatment with TG02", "description": "Total ERK5 was used as a loading control.\nAll animal procedures were carried out ethically according to animal user protocols approved by Institutional Animal Care Committee (IACUC). 4-6 week-old non-obese diabetic severe combined immune deficiency male or female mice (NOD-SCID-Prkdc^scid) were injected with 1×10^5 SU-DIPG-13p cells or 1×10^5 SF8628 DIPG cells. Cells were re-suspended in 2 μl of PBS and injected into the pons/midbrain using a stereotactic frame (Stoelting) and automated cell injector (Stoelting) with cells delivered over 4 minutes. Coordinates were as follows from the Lambda suture (x=0.8 mm, y=−0.8 mm, z=−5.0 mm). […]"}, "[25]": {"tested_on": "SF8628", "assay": "IC50 of two forms of TG02 in DIPG cell lines in vitro", "assay_type": "cell-based, human", "settings": "SF8628 cell line; listed as TG02 obtained from Adastra Pharmaceuticals", "description": "(§1) Direct cell counts were performed using the Countess II FL Automated Cell Counter (ThermoFisher Scientific). Alamar blue viability (ThermoFisher Scientific) and the 5-bromo-2′-deoxyuridine (BrdU) incorporated cell proliferation assay (Cell Signaling Technology Cat #6813) were performed using the manufacturer's standard protocol. EC50 curve analysis was performed using raw fluorescent Alamar blue values that were inputted into PRISM 7.0. Drug concentrations were log 10 transformed and values normalized to percent viability with respect to vehicle treated cells. EC50 values were interpolated from a log inhibitor vs. normalized response with variable slope using a least square fit model."}, "[26]": {"tested_on": "DIPG4", "assay": "IC50 of two forms of TG02 in DIPG cell lines in vitro", "assay_type": "cell-based, human", "settings": "DIPG4 cell line; listed as TG02 obtained from Adastra Pharmaceuticals", "description": "as §1"}, "[27]": {"tested_on": "DIPG007", "assay": "IC50 of two forms of TG02 in DIPG cell lines in vitro", "assay_type": "cell-based, human", "settings": "DIPG007 cell line; listed as TG02 obtained from Adastra Pharmaceuticals", "description": "as §1"}, "[28]": {"tested_on": "DIPG13p", "assay": "IC50 of two forms of TG02 in DIPG cell lines in vitro", "assay_type": "cell-based, human", "settings": "DIPG13p cell line; listed as TG02 obtained from Adastra Pharmaceuticals", "description": "as §1"}, "[29]": {"target": "ASK1 (Homo sapiens, UniProt Q99683)", "settings": "cited from earlier work"}}, "note": "Entries after “also recorded” stand apart in the source; their conditions may differ."}
{"smiles": "CN1C/C=C/CCOc2cccc(c2)-c2ccnc(n2)Nc2cccc(c2)C1", "note": "[TG02, (16E)-14-methyl-20-oxa-5,7,14,27-tetraazatetracyclo[19.3.1.12,6.18,12]heptacosa-1(25),2(27),3,5,8(26),9,11,16,21,23-decaene]", "values": [{"measurement": "effect of combining radiation therapy (RT) and TG02", "setting": "[1]", "value": "mostly a synergistic effect"}, {"measurement": "IC50", "setting": "[2]", "value": 0.019, "unit": "µM"}, {"measurement": "apoptosis (Annexin-PI)", "setting": "[3]; 48 h, vs DMSO vehicle control", "value": "induction of apoptosis; also recorded: increased populations in early apoptosis"}, {"measurement": "viable cells (Annexin negative, PI negative)", "setting": "[3]; 48 h, vs DMSO vehicle control", "value": "decreased viable cells"}, {"measurement": "cell growth", "setting": "[3]; vs vehicle", "value": "diminished cell growth"}, {"measurement": "IC50", "setting": "[4]", "value": 0.059, "unit": "µM"}, {"measurement": "inhibition at 100 nm", "setting": "[5]", "value": "less than 50%"}, {"measurement": "inhibition at 100 nm", "setting": "[6]", "value": "less than 50%"}, {"measurement": "inhibition at 100 nm", "setting": "[7]", "value": "less than 50%"}, {"measurement": "inhibition at 100 nm", "setting": "[8]", "value": "less than 50%"}, {"measurement": "inhibition at 100 nm", "setting": "[9]", "value": "less than 50%"}, {"measurement": "inhibition at 100 nm", "setting": "[10]", "value": "less than 50%"}, {"measurement": "inhibition at 100 nm", "setting": "[11]", "value": "less than 50%"}, {"measurement": "inhibition at 100 nm", "setting": "[12]", "value": "less than 50%"}, {"measurement": "IC50", "setting": "[13]", "value": 0.015, "unit": "µM"}, {"measurement": "cell viability, RT and TG02", "setting": "[14]; 50 nM TG02 and 10 Gy of RT (2-Gy fractions over 5 days), Day 5, compared to RT or TG02 only", "value": "statistically significant reduction in cell viability"}, {"measurement": "cell viability, TG02 alone", "setting": "[14]; 50 nM of TG02, Day 5, vs DMSO control", "value": "significantly reduced cell viability"}, {"measurement": "inhibition at 100 nm", "setting": "[15]", "value": "less than 50%"}, {"measurement": "inhibition at 100 nm", "setting": "[16]", "value": "less than 50%"}, {"measurement": "most common toxicities (≥20%)", "setting": "[17]; adults with acute leukemia", "value": "nausea, vomiting, fatigue, abdominal pain, diarrhea, constipation, and hypophosphatemia"}, {"measurement": "serious adverse events", "setting": "[17]; adults with hematologic malignancies", "value": "nausea and vomiting (grades 2 and 3), fatigue (grade 3), altered mental status (grade 2), rash (grade 3), thrombocytopenia (grade 4), and neutropenic fever with sepsis (grade 3)"}, {"measurement": "maximum tolerated dose (MTD)", "setting": "[17]; intermittent TG02 with fixed doses of carfilzomib, twice a week for 21 of 28 days", "value": 250, "unit": "mg per dose"}, {"measurement": "inhibition at 100 nm", "setting": "[18]", "value": "less than 50%"}, {"measurement": "inhibition at 100 nm", "setting": "[19]", "value": "less than 50%"}, {"measurement": "IC50", "setting": "[20]", "value": 0.036, "unit": "µM"}, {"measurement": "inhibition at 100 nm", "setting": "[21]", "value": "less than 50%"}, {"measurement": "IC50", "setting": "[22]", "value": 0.019, "unit": "µM"}, {"measurement": "inhibition at 100 nm", "setting": "[23]", "value": "less than 50%"}, {"measurement": "in vivo ERK5 auto-phosphorylation", "setting": "[24]", "value": "inhibition of ERK5 auto-phosphorylation"}, {"measurement": "in vivo apoptosis by cleaved PARP", "setting": "[24]", "value": "induction of apoptosis"}, {"measurement": "IC50", "setting": "[25]", "value": 0.07, "unit": "µM"}, {"measurement": "IC50", "setting": "[26]", "value": 0.06, "unit": "µM"}, {"measurement": "IC50", "setting": "[27]", "value": 0.093, "unit": "µM"}, {"measurement": "IC50", "setting": "[28]", "value": 0.08, "unit": "µM"}, {"measurement": "inhibition at 100 nm", "setting": "[29]", "value": "less than 50%"}]}
